According to patent publication EP2966448B1, “METHOD FOR THE PREDICTION OR PROGNOSIS OF THE RESPONSE OF A HUMAN SUBJECT SUFFERING FROM CANCER TO TREATMENT WITH AN ANTAGONIST OF THE NK1 RECEPTOR” (priority 2013, dated 2014):
Read-outs that look alike come from different tables or passages of the source.

Columns and labels:
[1] = tested on: Pancreatic carcinoma; assay: Inhibition of primary tumor cell cultures (48 hours) vs NK1 receptor immunostaining (Example 1); type: cell-based; conditions: Homo sapiens, 1 micromolar, read-out: Percentage of inhibition of cell cultures
Description: (§1) Cell cultures. To obtain tumor cells from human primary tumors we used the method described in De Bari et al. (De Bari et al. 2001). Briefly, small pieces of the tumors were digested into a hyaluronidase solution (Sigma-Aldrich, USA) at a concentration of 1 mg/ml during 15 minutes at 37°C, and then they were treated with 6 mg/ml of collagenase type IV (Invitrogen) during 2 hours at 37°C. Consecutively, cells were washed, and resuspended in the DMEM culture medium with high concentration of glucose (Dulbecco's Modified Eagle's Medium, Invitrogen) supplemented with 1% of antibiotics-antimycotics (Invitrogen) and with 1% of sodium pyruvate (Invitrogen), and the cells were seeded in culture slides at a concentration of 10.000 cells per square centimeter. When cells reached confluence, the adherent cells were separated using sterile trypsin at 0,5% (Invitrogen) and they were used among passages 3 and 9. For the assays shown next, tumor cells were seeded on slides at a concentration of 25.000 cells per well. A total of 6 wells containing the tumor cells were used as survival control. […] All the cultures were kept during 48 hours and later on recollected for their analysis.
(§2) Immunohistochemistry techniques. The presence of NK1 receptors was also analyzed using immunohistochemistry techniques. Briefly, a sample of each of the cultures of the cell lines used in the present invention, was centrifuged (5 minutes at 1.500 rpm) and the pellet obtained was dehydrated using increasing concentrations of ethanol and, finally, xylol. Then, said dehydrated samples were embedded in paraffin, creating a block of cells. Such paraffin blocks were cut with a microtome at 5 microns thickness, and were placed on microscope slides adequate to perform immunohistochemistry techniques. Consecutively, they were de-paraffinized by immersing them in xylol, to be finally hydrated using a solution containing decreasing concentrations of ethanol, and finally submerged them into water. […] After this, the samples were left to cool down at room temperature for 10 minutes. The endogenous peroxidase activity was blocked with 3% peroxide of hydrogen for 30 minutes at room temperature. After washing the samples with 0.05 M of Tris buffer, they were incubated with 10% non-immune pork serum at for 30 minutes at room temperature. To analyze the expression of NK1 receptors, the cellular samples were incubated in the presence of anti-NK1 antibodies (S8305, Sigma-Aldrich) diluted 1:1000, overnight at 4°C. Afterwards, the samples were washed in Tris buffer 0.05 M at room temperature. The next step was the addition of Envision System-HRP (Dako) reagents for 30 minutes at room temperature. Then, the samples were washed again in Tris buffer 0.05 M and the immunoreactivity was visualized through light microscopy with a chromogenic solution containing 3,3'-Diaminobenzidine (DAB+; Dako, USA). To differentiate the cell nuclei, they were slightly stained with hematoxylin. As negative control, it was used samples not incubated with the primary antibody anti-NK1, which was replaced by non-immune serum. All the samples were evaluated.
(§3) To value the immunostaining in each of the cases six cuts were performed to be analyzed by the immunohistochemistry technique. In each of the six cuts, it was counted cells in 20 fields (magnification 400x) using an Olympus microscope (model CX31). In each field it was counted the total number of cells and the number of cells presenting immunostaining, calculating afterwards the percentage of cells which presented immunostaining.

[2] = tested on: Renal cell carcinoma; assay: as above; type: cell-based; conditions: Homo sapiens, 1 micromolar, read-out: Percentage of inhibition of cell cultures
Description: as §1, §2, §3

[3] = tested on: Lung carcinoma (non small cell type); assay: as above; type: cell-based; conditions: Homo sapiens, 1 micromolar, read-out: Percentage of inhibition of cell cultures
Description: as §1, §2, §3

[4] = tested on: Thyroid carcinoma (papillary type); assay: as above; type: cell-based; conditions: Homo sapiens, 1 micromolar, read-out: Percentage of inhibition of cell cultures
Description: as §1, §2, §3

[5] = tested on: Glioma; assay: as above; type: cell-based; conditions: Homo sapiens, 1 micromolar, read-out: Percentage of inhibition of cell cultures
Description: as §1, §2, §3

[6] = tested on: Malignant Fibrous Histiocytoma; assay: as above; type: cell-based; conditions: Homo sapiens, 1 micromolar, read-out: Percentage of inhibition of cell cultures
Description: as §1, §2, §3

[7] = tested on: Ewing Sarcoma; assay: as above; type: cell-based; conditions: Homo sapiens, 1 micromolar, read-out: Percentage of inhibition of cell cultures
Description: as §1, §2, §3

[8] = tested on: Leukemia B; assay: as above; type: cell-based; conditions: Homo sapiens, 1 micromolar, read-out: Percentage of inhibition of cell cultures
Description: as §1, §2, §3

[9] = tested on: Myeloma; assay: as above; type: cell-based; conditions: Homo sapiens, 1 micromolar, read-out: Percentage of inhibition of cell cultures
Description: as §1, §2, §3

[10] = tested on: Colon carcinoma (Adenocarcinoma); assay: Inhibition of primary tumor cell cultures vs Kras mutation (Example 2); type: cell-based, human; conditions: Colon carcinoma (Adenocarcinoma), 100 micromolar
Description: as §1
(§4) In each case the presence or not of mutations in K-ras gene was determined.
(§5) To determine the existence of mutations in the K-ras gene DNA from cancer tumor cells was extracted from samples obtained from the different cancer tumor cells, using DNA extraction kits from Takara (Madison, WI, US) or Ambion (Huntingdon, Cambridgeshire, United Kingdom), following the manufacturer's instructions, and as it has been previously published (Di Fiore F, et al. 2007). Consecutively it was analyzed by sequencing the exon 2 of the KRAS gene, , by means of PCR amplification from previously extracted cancer tumor DNA, using the following sense primer (SEQ ID NO. 15): 5'-[sequence]-3' and anti-sense primer (SEQ ID NO. 16): 5'-[sequence]-3'. After the purification using the Qiagen extraction kit, the PCR products were sequenced using the Big Dye Terminator Kit V3.1 (Applied Biosystems, Foster City, CA, U.S.) and an ABI Prism 377 or 3100 DNA sequencer (Applied Biosystems). The presence of a heterozygous mutation in the KRAS gene in cancer tumor cells of the cultures was defined as the appearance of a mutant peak of a height of at least a third of the wild type. All the sequence analysis were executed at least twice in two independent PCR.
(§6) The antibody against NK1 receptor (Table 16) was used at 1/50 concentration. The percentages of inhibition are expressed in percentage of variation in relation to control ± standard deviation.

[11] = tested on: Renal cell carcinoma (clear cell renal cell carcinoma); assay: as above; type: cell-based, human; conditions: Renal cell carcinoma (clear cell renal cell carcinoma), 100 micromolar
Description: as §1, §4, §5, §6

[12] = tested on: Carcinoma of the uterine cervix (Squamous cell carcinoma); assay: as above; type: cell-based, human; conditions: Carcinoma of the uterine cervix (Squamous cell carcinoma), 100 micromolar
Description: as §1, §4, §5, §6

[13] = tested on: Lung carcinoma (small cell lung carcinoma); assay: as above; type: cell-based, human; conditions: Lung carcinoma (small cell lung carcinoma), 100 micromolar
Description: (§7) To obtain tumor cells from human primary tumors we used the method described in De Bari et al. (De Bari et al. 2001). Briefly, small pieces of the tumors were digested into a hyaluronidase solution (Sigma-Aldrich, USA) at a concentration of 1 mg/ml during 15 minutes at 37°C, and then they were treated with 6 mg/ml of collagenase type IV (Invitrogen) during 2 hours at 37°C. Consecutively, cells were washed, and resuspended in the DMEM culture medium with high concentration of glucose (Dulbecco's Modified Eagle's Medium, Invitrogen) supplemented with 1% of antibiotics-antimycotics (Invitrogen) and with 1% of sodium pyruvate (Invitrogen), and the cells were seeded in culture slides at a concentration of 10.000 cells per square centimeter. When cells reached confluence, the adherent cells were separated using sterile trypsin at 0,5% (Invitrogen) and they were used among passages 3 and 9. For the assays shown next, tumor cells were seeded on slides at a concentration of 25.000 cells per well. A total of 6 wells containing the tumor cells were used as survival control. […] All the cultures were kept during 48 hours and later on recollected for their analysis.
as §4, §5, §6

[14] = tested on: Thyroid carcinoma (follicular carcinoma); assay: as above; type: cell-based, human; conditions: Thyroid carcinoma (follicular carcinoma), 100 micromolar
Description: as §7, §4, §5, §6

[15] = tested on: Thyroid carcinoma (papillary carcinoma); assay: as above; type: cell-based, human; conditions: Thyroid carcinoma (papillary carcinoma), 100 micromolar
Description: as §7, §4, §5, §6

[16] = tested on: human primary tumor cells; assay: Inhibition of primary tumor cell cultures vs absence or presence of ERK  protein (Example 3; tumor type per table line); type: cell-based; conditions: 100 micromolar
Description: Cell cultures. […] Briefly, small pieces of the tumors were digested into a hyaluronidase solution (Sigma-Aldrich, USA) at a concentration of 1 mg/ml during 15 minutes at 37°C, and then they were treated with 6 mg/ml of collagenase type IV (Invitrogen) during 2 hours at 37°C. Consecutively, cells were washed, and resuspended in the DMEM culture medium with high concentration of glucose (Dulbecco's Modified Eagle's Medium, Invitrogen) supplemented with 1% of antibiotics-antimycotics (Invitrogen) and with 1% of sodium pyruvate (Invitrogen), and the cells were seeded in culture slides at a concentration of 10.000 cells per square centimeter. When cells reached confluence, the adherent cells were separated using sterile trypsin at 0,5% (Invitrogen) and they were used among passages 3 and 9. For the assays shown next, tumor cells were seeded on slides at a concentration of 25.000 cells per well. A total of 6 wells containing the tumor cells were used as survival control. […] All the cultures were kept during 48 hours and later on recollected for their analysis.
Consecutively, the cells were placed in cultures in the presence of several antagonists of the NK1 receptor.
In each case it was determined the presence or absence of the downstream effector in the MAP Kinases ERK pathway.
To determine the presence of the ERK protein, it was performed a Western Blot technique, using as primary antibody: Phospho-p44/42 MAPK (Erk1/2) (Thr202/Tyr204) (D13.14.4E) XP® Rabbit mAb (4370, Cell Signalling). To determine the presence of the MEK protein, it was performed the Western Blot technique, using as primary antibody Phospho-MEK1/2 (Ser217/221) (9121, Cell Signalling).
The antibody against NK1 receptor (Table 21) was used at 1/50 concentration. The percentages of inhibition are expressed in percentages of variation in relation to control ± standard deviation.

[17] = NK1 receptor immunostaining Group 1 (less than 20% of the cells)
[18] = NK1 receptor immunostaining Group 2 (20-80% of the cells)
[19] = NK1 receptor immunostaining Group 3 (more than 80% of the cells)
[20] = NK1 receptor immunostaining Intensity grade 1
[21] = NK1 receptor immunostaining Intensity grade 2
[22] = NK1 receptor immunostaining Intensity grade 3
[23] = Cases with Kras non-mutated (wild type)

Cc1cc(F)ccc1[C@H]1CNCCN1C(=O)N(C)[C@H](C)c1cc(C(F)(F)F)cc(C(F)(F)F)c1 [Vestipitant]
inhibition at 1 µM [1, 17]: 11 ± 3%
inhibition at 1 µM [1, 18]: 45 ± 2%
inhibition at 1 µM [1, 19]: 91 ± 3%
inhibition at 1 µM [1, 20]: 21 ± 4%
inhibition at 1 µM [1, 21]: 47 ± 5%
inhibition at 1 µM [1, 22]: 91 ± 5%
inhibition at 1 µM [2, 17]: 10 ± 4%
inhibition at 1 µM [2, 18]: 45 ± 3%
inhibition at 1 µM [2, 19]: 93 ± 6%
inhibition at 1 µM [2, 20]: 21 ± 3%
inhibition at 1 µM [2, 21]: 46 ± 4%
inhibition at 1 µM [2, 22]: 93 ± 4%
inhibition at 1 µM [3, 17]: 15 ± 2%
inhibition at 1 µM [3, 18]: 45 ± 2%
inhibition at 1 µM [3, 19]: 93 ± 4%
inhibition at 1 µM [3, 20]: 17 ± 2%
inhibition at 1 µM [3, 21]: 49 ± 5%
inhibition at 1 µM [3, 22]: 93 ± 5%
inhibition at 1 µM [4, 17]: 15 ± 3%
inhibition at 1 µM [4, 18]: 47 ± 5%
inhibition at 1 µM [4, 19]: 96 ± 4%
inhibition at 1 µM [4, 20]: 16 ± 2%
inhibition at 1 µM [4, 21]: 47 ± 5%
inhibition at 1 µM [4, 22]: 96 ± 5%
inhibition at 1 µM [5, 17]: 15 ± 4%
inhibition at 1 µM [5, 18]: 45 ± 4%
inhibition at 1 µM [5, 19]: 92 ± 4%
inhibition at 1 µM [5, 20]: 19 ± 3%
inhibition at 1 µM [5, 21]: 48 ± 5%
inhibition at 1 µM [5, 22]: 92 ± 3%
inhibition at 1 µM [6, 17]: 15 ± 4%
inhibition at 1 µM [6, 18]: 46 ± 4%
inhibition at 1 µM [6, 19]: 91 ± 5%
inhibition at 1 µM [6, 20]: 17 ± 3%
inhibition at 1 µM [6, 21]: 48 ± 4%
inhibition at 1 µM [6, 22]: 91 ± 5%
inhibition at 1 µM [7, 17]: 16 ± 3%
inhibition at 1 µM [7, 18]: 46 ± 4%
inhibition at 1 µM [7, 19]: 90 ± 6%
inhibition at 1 µM [7, 20]: 16 ± 4%
inhibition at 1 µM [7, 21]: 47 ± 3%
inhibition at 1 µM [7, 22]: 90 ± 6%
inhibition at 1 µM [8, 17]: 16 ± 5%
inhibition at 1 µM [8, 18]: 47 ± 5%
inhibition at 1 µM [8, 19]: 92 ± 5%
inhibition at 1 µM [8, 20]: 17 ± 2%
inhibition at 1 µM [8, 21]: 47 ± 3%
inhibition at 1 µM [8, 22]: 92 ± 4%
inhibition at 1 µM [9, 17]: 15 ± 2%
inhibition at 1 µM [9, 18]: 45 ± 4%
inhibition at 1 µM [9, 19]: 93 ± 6%
inhibition at 1 µM [9, 20]: 17 ± 2%
inhibition at 1 µM [9, 21]: 47 ± 4%
inhibition at 1 µM [9, 22]: 93 ± 5%
Percentage of inhibition of cell cultures ([10]; Cases with Kras mutated): 33±5 percentage
Percentage of inhibition of cell cultures [10, 23]: 96±5 percentage
Percentage of inhibition of cell cultures ([11]; Cases with Kras mutated): 25±5 percentage
Percentage of inhibition of cell cultures [11, 23]: 95±6 percentage
Percentage of inhibition of cell cultures ([12]; Cases with Kras mutated): 25±5 percentage
Percentage of inhibition of cell cultures [12, 23]: 94±3 percentage
Percentage of inhibition of cell cultures ([13]; Cases with Kras mutated): 23±4 percentage
Percentage of inhibition of cell cultures [13, 23]: 95±4 percentage
Percentage of inhibition of cell cultures ([14]; Cases with Kras mutated): 25±3 percentage
Percentage of inhibition of cell cultures [14, 23]: 97±4 percentage
Percentage of inhibition of cell cultures ([15]; Cases with Kras mutated): 26±4 percentage
Percentage of inhibition of cell cultures [15, 23]: 94±5 percentage
Percentage of inhibition of cell cultures ([16]; Breast carcinoma (ductal adenocarcinoma), cases with presence of ERK): 94±3 percentage
Percentage of inhibition of cell cultures ([16]; Breast carcinoma (ductal adenocarcinoma), cases without presence of ERK): 26±4 percentage
Percentage of inhibition of cell cultures ([16]; Burkitt Lymphoma, cases with presence of ERK): 93±5 percentage
Percentage of inhibition of cell cultures ([16]; Burkitt Lymphoma, cases without presence of ERK): 26±4 percentage
Percentage of inhibition of cell cultures ([16]; Carcinoma of the uterine cervix (Squamous cell carcinoma), cases with presence of ERK): 94±4 percentage
Percentage of inhibition of cell cultures ([16]; Carcinoma of the uterine cervix (Squamous cell carcinoma), cases without presence of ERK): 29±3 percentage
Percentage of inhibition of cell cultures ([16]; Colon carcinoma (Adenocarcinoma), cases with presence of ERK): 94±3 percentage
Percentage of inhibition of cell cultures ([16]; Colon carcinoma (Adenocarcinoma), cases without presence of ERK): 23 percentage
Percentage of inhibition of cell cultures ([16]; Endometrium carcinoma, cases with presence of ERK): 93±3 percentage
Percentage of inhibition of cell cultures ([16]; Endometrium carcinoma, cases without presence of ERK): 28±5 percentage
Percentage of inhibition of cell cultures ([16]; Gastric carcinoma (Adenocarcinoma), cases with presence of ERK): 95±3 percentage
Percentage of inhibition of cell cultures ([16]; Gastric carcinoma (Adenocarcinoma), cases without presence of ERK): 24±4 percentage
Percentage of inhibition of cell cultures ([16]; Glioma (astrocytoma), cases with presence of ERK): 95±3 percentage
Percentage of inhibition of cell cultures ([16]; Glioma (astrocytoma), cases without presence of ERK): 27±4 percentage
